Legend:
HMGA2-DNA interactions = molecular target: T1, HMGA2-DNA interactions (Mus musculus, UniProt P52927); test: LANCE TR-FRET secondary assay of HMGA2 binding to FL814; parameters: species or system mammalian; concentration or dose not given beside the values; settings: cherry picked primary hits
T1 construct: made in house
T1 sequence (P52927 2-108 limits assumed): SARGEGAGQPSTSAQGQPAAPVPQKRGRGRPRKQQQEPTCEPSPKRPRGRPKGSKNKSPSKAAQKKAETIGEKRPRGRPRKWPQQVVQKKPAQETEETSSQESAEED
Description: In this study, we also developed a LANCE time-resolved fluorescence energy transfer (TR-FRET) assay as a secondary assay for our screening. The His-tagged HMGA2 and biotinylated oligomer FL814 were linked to Europium-labeled anti-6 × His antibody and APC-labeled streptavidin, respectively. A series of DNA binding studies were performed to determine the optimal conditions for the secondary Assay (Fig. S2). After these experiments, 12.5 nM of FL814 and 62.5 nM of HMGA2 were chosen for the assay, which is the same for the primary assay. The assay tolerated up to 0.25% DMSO without any significant change in signal (Fig. S2c). For a counterscreen assay to exclude those compounds that nonspecifically bind to the protein surface, an AlphaScreen assay of H4 peptide binding to bromodomain-containing protein 4 (BRD4) was adopted (Fig. S2e). Since we are looking for compounds with anti-metastasis or anti-obesity activities, compounds with high levels of cytotoxicity are undesirable. […] Furthermore, potential DNA-binding compounds, i.e., DNA intercalators, minor groove binders, and DNA alkylating agents, can be identified by analyzing their chemical structures and will be excluded as well.
Using a Labcyte Echo 555 acoustic dispenser 5 nL of DMSO were added to columns 1–4 and 45–48 of a white 1536 well plate, while 5 nL of 2 mM compounds in DMSO were added to columns 5–44. Using a Beckman BioRAPTR FRD bulk reagent dispenser 1 µL of assay buffer (10 mM Tris, 300 mM NaCl and 0.005% Tween 20) was added to columns 1 and 2. Next, 1 µL of assay buffer containing 125 nM HMGA2 was added to columns 3–48 with a Beckman BioRAPTR FRD bulk reagent dispenser. Finally, 1 µL of assay buffer containing 25 nM FL814 was added to every well of the plate using a Beckman BioRAPTR FRD bulk reagent dispenser. The plate was then centrifuged at 200 × g for 1 min. After 30 min at room temperature 1 µL of assay buffer containing 250 nM LANCE Ultra ULight-anti-6xHIS and 1 µL of assay buffer containing 12 nM LANCE Eu-W1024 Streptavidin was dispensed into every well using a Beckman BioRAPTR FRD bulk reagent dispenser. The plates were then centrifuged at 200 × g for 1 min. After 1 h at room temperature the plates were read on a Perkin Elmer Envision multimode plate reader in TR-FRET mode (excitation @340 nm, first emission at @665 nm, second emission at 615 nm).

[1] = system: human epidermoid carcinoma cell line, A431; test: Cytotoxicity / cell viability assay (ATPlite); type: cell-based; settings: human A-431 cells, 48 h
Description: In this study, we also developed a LANCE time-resolved fluorescence energy transfer (TR-FRET) assay as a secondary assay for our screening. The His-tagged HMGA2 and biotinylated oligomer FL814 were linked to Europium-labeled anti-6 × His antibody and APC-labeled streptavidin, respectively. A series of DNA binding studies were performed to determine the optimal conditions for the secondary Assay (Fig. S2). After these experiments, 12.5 nM of FL814 and 62.5 nM of HMGA2 were chosen for the assay, which is the same for the primary assay. The assay tolerated up to 0.25% DMSO without any significant change in signal (Fig. S2c). For a counterscreen assay to exclude those compounds that nonspecifically bind to the protein surface, an AlphaScreen assay of H4 peptide binding to bromodomain-containing protein 4 (BRD4) was adopted (Fig. S2e). Since we are looking for compounds with anti-metastasis or anti-obesity activities, compounds with high levels of cytotoxicity are undesirable. […]
A-431 cells were grown in media (DMEM + 10% FBS + 1 × Penicillin/Streptomycin + 2 mM L-glutamine) at 37 °C in a humidified incubator with 5% CO2 to 70% confluency. […] After 10 min the plates were read using a Perkin Elmer Viewlux multimode plate reader in luminescence mode.

[2] = molecular target: “AT-hook” peptide 3 (ATHP3) (Homo sapiens, UniProt P52926); test: Isothermal titration calorimetry (ITC), titration into ATHP3; type: binding
Description: ITC experiments were conducted using a VP-ITC titration calorimeter (MicroCal, Inc., Northampton, MA) interfaced to a PC. Origin 7.0, supplied by the manufacturer was used for data acquisition. […] The heat liberated or absorbed is observed as a peak corresponding to the power required keeping the sample and reference cells at identical temperatures. The peak produced during the injection is converted to heat output by integration and corrected for cell volume and sample concentration. […] The net enthalpy for the titration reaction was determined by subtraction of the component heats of dilution.

BTSC#83 = test: Growth curves (CellTiter), BTSC#83; type: cell-based; settings: up to 200 μM
Description: BTSC#83 and BTSC#30p and their culture conditions have been described. For growth curves, suspension cultures were mechanically disaggregated and filtered through 37 µm filters (StemCell Technologies, Vancouver, Canada) in order to obtain bona fide single-cell suspension. […] Cell growth was assayed at the indicated time using the CellTiter Assay System (Promega). The growth conditions of 8505c anaplastic thyroid carcinoma cells and mouse Embryonic Fibroblasts (MEFs) knock-out for HMGA1, HMGA2, and HMGA1/A2 double mutant have been described previously[42],[64]. P values were calculated by using two-way ANOVA followed by Sidak’s multiple comparison test.

BTSC#30p = test: Western blotting and qRT-PCR expression analysis, BTSC#30p; type: cell-based
Description: The single-cell suspension was obtained by mechanical disaggregation of the spheres and total proteins were extracted 48 h later, as previously described. After separation by SDS–polyacrylamide gel electrophoresis, proteins were blotted on nitrocellulose membranes (GE Healthcare Europe Gmb) and hybridized with the following antibodies: anti-HMGA1, anti-HMGA2 (Genetex) or affinity-purified anti-HMGA2, anti-α-actin (SantaCruz Biotechnologies). The single-cell suspension was obtained by mechanical disaggregation of the spheres and RNA was extracted 48 h later, by using Direct-zol RNA MiniPrep (Zymo Research). One μg of RNA was retrotranscribed, by using QuantiTect® Reverse Transcription Kit (Qiagen) and qRT-PCR was performed as described. The 2^–ΔΔCt formula was used to calculate the differential gene expression.

inhibition of HMGA2-DNA interactions (HMGA2-DNA interactions): ≥ 50%
− TΔS [2]: 6.75 kcal/mol
Kd ([2]; first line, read-out: ATHP3 Ka (M^−1) (converted)): 0.0246 µM
ATHP3 Binding site ([2]; number of sites, first line): 0.98
Structure (SMILES): Cc1ccc(C(=O)Nc2ccc(S(=O)(=O)O)c3cc(S(=O)(=O)O)cc(S(=O)(=O)O)c23)cc1NC(=O)c1cccc(NC(=O)Nc2cccc(C(=O)Nc3cc(C(=O)Nc4ccc(S(=O)(=O)O)c5cc(S(=O)(=O)O)cc(S(=O)(=O)O)c45)ccc3C)c2)c1 [suramin]
cytotoxicity [1]: not cytotoxic
cell growth (BTSC#83): did not significantly affect the cell growth
ID2 expression (BTSC#30p; 100 μM for 48 h): induces reduction in ID2 expression
expression of HMGA1 (BTSC#30p; Western blotting and qRT-PCR): slightly reduced
expression of HMGA2 (BTSC#30p; Western blotting and qRT-PCR): slightly reduced
expression of SNAIL (BTSC#30p; qRT-PCR, 100 µM for 48 h): significantly reduced
expression of ID2 (BTSC#30p; qRT-PCR, 100 µM for 9 days): significantly reduced
expression of MSI1 (BTSC#30p; qRT-PCR, 100 µM for 9 days): significantly reduced
expression of OLIG2 (BTSC#30p; qRT-PCR, 100 µM for 9 days): increased
